Laboratory results reported in US8802597B2, “Herbicidal pyrimidines” (E I du Pont de Nemours and Company, priority 2003, dated 2014).

Legend:
Experiment in all cases: Test C pre/postemergence
Format in all cases: in vivo
[1] = test system: morningglory (Ipomoea coccinea); details: for Plant response rating (scale of 0 to 100), Morningglory / Morningglory plant response rating: Postemergence; for Morningglory plant response rating: scale 0 to 100 (0 no effect, 100 complete control); for Plant response rating, Morningglory: Preemergence
Summary of the method: (§1)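 Percent control is a visual rating (0 none, 100 complete) taken against untreated plants after 12 to 14 days of greenhouse growth. Applications were made preemergence to seeded pots and postemergence to plants at the 1- to 4-leaf stage, in a non-phytotoxic surfactant-containing solvent.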

[2] = test system: johnsongrass (Sorghum halepense); details: for Plant response rating (scale of 0 to 100), Johnsongrass / Johnsongrass plant response rating: Postemergence; for Johnsongrass plant response rating: scale 0 to 100 (0 no effect, 100 complete control); for Plant response rating, Johnsongrass: Preemergence
Summary of the method: as §1

[3] = test system: pigweed (Amaranthus retroflexus); details: for Plant response rating (scale of 0 to 100), Pigweed / Pigweed plant response rating: Postemergence; for Pigweed plant response rating: scale 0 to 100 (0 no effect, 100 complete control); for Plant response rating, Pigweed: Preemergence
Summary of the method: as §1

[4] = test system: cocklebur (Xanthium strumarium); details: for Plant response rating (scale of 0 to 100), Cocklebur / Cocklebur plant response rating: Postemergence; for Cocklebur plant response rating: scale 0 to 100 (0 no effect, 100 complete control); for Plant response rating, Cocklebur: Preemergence
Summary of the method: as §1

[5] = test system: common (oilseed) sunflower (Helianthus annuus); details: Preemergence
Summary of the method: as §1

kochia (Kochia scoparia) = details: for Plant response rating (scale of 0 to 100), Kochia / Kochia plant response rating: Postemergence; for Kochia plant response rating: scale 0 to 100 (0 no effect, 100 complete control); for Plant response rating, Kochia: Preemergence
Summary of the method: as §1

[6] = test system: woolly cupgrass (Eriochloa villosa); details: for Plant response rating (scale of 0 to 100), Cupgrass, Woolly / Cupgrass, Woolly plant response rating: Postemergence; for Cupgrass, Woolly plant response rating: scale 0 to 100 (0 no effect, 100 complete control); for Plant response rating, Cupgrass, Woolly: Preemergence
Summary of the method: as §1

[7] = test system: common ragweed (Ambrosia elatior); details: for Plant response rating (scale of 0 to 100), Ragweed / Ragweed plant response rating: Postemergence; for Ragweed plant response rating: scale 0 to 100 (0 no effect, 100 complete control); for Plant response rating, Ragweed: Preemergence
Summary of the method: as §1

corn (Zea mays) = details: for Plant response rating (scale of 0 to 100), Corn / Corn plant response rating: Postemergence; for Corn plant response rating: scale 0 to 100 (0 no effect, 100 complete control); for Plant response rating, Corn: Preemergence
Summary of the method: as §1

[8] = test system: bermudagrass (Cynodon dactylon)
Summary of the method: as §1

[9] = test system: Surinam grass (Brachiaria decumbens); details: for Plant response rating (scale of 0 to 100), Surinam Grass / Surinam Grass plant response rating: Postemergence; for Surinam Grass plant response rating: scale 0 to 100 (0 no effect, 100 complete control); for Plant response rating, Surinam Grass: Preemergence
Summary of the method: as §1

[10] = 16 g ai/ha, scale 0 to 100, 0 no effect, 100 complete control
[11] = 31 g ai/ha, scale 0 to 100, 0 no effect, 100 complete control
[12] = 62 g ai/ha, scale 0 to 100, 0 no effect, 100 complete control

COCc1nc(C2CC2)nc(N)c1Br [Compound 11]
15: Plant response rating (scale of 0 to 100), Ragweed ([7]; 16 g ai/ha)
100: Plant response rating, Surinam Grass [9, 12] | Plant response rating, Surinam Grass ([9]; 125 g ai/ha, scale 0 to 100)
40: Cocklebur plant response rating ([4]; 125 g ai/ha) | Plant response rating (scale of 0 to 100), Kochia (kochia (Kochia scoparia); 16 g ai/ha)
75: Plant response rating, Johnsongrass ([2]; 125 g ai/ha, scale 0 to 100) | Kochia plant response rating (kochia (Kochia scoparia); 62 g ai/ha) | Ragweed plant response rating ([7]; 125 g ai/ha)
45: Plant response rating (scale of 0 to 100), Ragweed ([7]; 31 g ai/ha) | Plant response rating, Ragweed ([7]; 125 g ai/ha, scale 0 to 100)
90: Pigweed plant response rating ([3]; 125 g ai/ha) | Plant response rating, Pigweed ([3]; 125 g ai/ha, scale 0 to 100) | Kochia plant response rating (kochia (Kochia scoparia); 125 g ai/ha)
0: Plant response rating (scale of 0 to 100), Morningglory ([1]; 16 g ai/ha) | Plant response rating (scale of 0 to 100), Morningglory ([1]; 31 g ai/ha) | Morningglory plant response rating ([1]; 62 g ai/ha) | Morningglory plant response rating ([1]; 125 g ai/ha) | Plant response rating, Morningglory [1, 10] | Plant response rating, Morningglory [1, 11] | Plant response rating, Morningglory [1, 12] | Plant response rating, Morningglory ([1]; 125 g ai/ha, scale 0 to 100) | Plant response rating (scale of 0 to 100), Johnsongrass ([2]; 16 g ai/ha) | Plant response rating (scale of 0 to 100), Johnsongrass ([2]; 31 g ai/ha) | Johnsongrass plant response rating ([2]; 62 g ai/ha) | Johnsongrass plant response rating ([2]; 125 g ai/ha) | Plant response rating, Johnsongrass [2, 10] | Plant response rating, Johnsongrass [2, 11] | Plant response rating, Johnsongrass [2, 12] | Plant response rating, Pigweed [3, 10] | Plant response rating, Pigweed [3, 11] | Plant response rating (scale of 0 to 100), Cocklebur ([4]; 16 g ai/ha) | Plant response rating (scale of 0 to 100), Cocklebur ([4]; 31 g ai/ha) | Plant response rating, Cocklebur [4, 10] | Plant response rating, Cocklebur [4, 11] | Plant response rating, Cocklebur [4, 12] | Plant response rating, Cocklebur ([4]; 125 g ai/ha, scale 0 to 100) | Plant response rating, Sunflower [5, 10] | Plant response rating, Sunflower [5, 11] | Plant response rating, Sunflower [5, 12] | Plant response rating, Sunflower ([5]; 125 g ai/ha, scale 0 to 100) | Plant response rating, Kochia (kochia (Kochia scoparia); [10]) | Plant response rating, Kochia (kochia (Kochia scoparia); [11]) | Plant response rating, Kochia (kochia (Kochia scoparia); [12]) | Plant response rating (scale of 0 to 100), Cupgrass, Woolly ([6]; 16 g ai/ha) | Plant response rating (scale of 0 to 100), Cupgrass, Woolly ([6]; 31 g ai/ha) | Cupgrass, Woolly plant response rating ([6]; 62 g ai/ha) | Cupgrass, Woolly plant response rating ([6]; 125 g ai/ha) | Plant response rating, Cupgrass, Woolly [6, 10] | Plant response rating, Cupgrass, Woolly [6, 11] | Plant response rating, Cupgrass, Woolly [6, 12] | Plant response rating, Cupgrass, Woolly ([6]; 125 g ai/ha, scale 0 to 100) | Plant response rating, Ragweed [7, 10] | Plant response rating, Ragweed [7, 11] | Plant response rating (scale of 0 to 100), Corn (corn (Zea mays); 16 g ai/ha) | Plant response rating (scale of 0 to 100), Corn (corn (Zea mays); 31 g ai/ha) | Corn plant response rating (corn (Zea mays); 62 g ai/ha) | Corn plant response rating (corn (Zea mays); 125 g ai/ha) | Plant response rating, Corn (corn (Zea mays); [10]) | Plant response rating, Corn (corn (Zea mays); [11]) | Plant response rating, Corn (corn (Zea mays); [12]) | Plant response rating, Corn (corn (Zea mays); 125 g ai/ha, scale 0 to 100) | Plant response rating (scale of 0 to 100), Bermudagrass ([8]; Postemergence, 16 g ai/ha) | Plant response rating (scale of 0 to 100), Bermudagrass ([8]; Postemergence, 31 g ai/ha) | Bermudagrass plant response rating ([8]; Postemergence, 62 g ai/ha, scale 0 to 100 (0 no effect, 100 complete control)) | Plant response rating, Bermudagrass ([8]; Postemergence, 125 g ai/ha, scale 0 to 100) | Plant response rating, Bermudagrass ([8]; Preemergence, 16 g ai/ha, scale 0 to 100, 0 no effect, 100 complete control) | Plant response rating, Bermudagrass ([8]; Preemergence, 31 g ai/ha, scale 0 to 100, 0 no effect, 100 complete control) | Plant response rating, Bermudagrass ([8]; Preemergence, 62 g ai/ha, scale 0 to 100, 0 no effect, 100 complete control) | Plant response rating, Bermudagrass ([8]; Preemergence, 125 g ai/ha, scale 0 to 100) | Plant response rating (scale of 0 to 100), Surinam Grass ([9]; 16 g ai/ha) | Plant response rating (scale of 0 to 100), Surinam Grass ([9]; 31 g ai/ha) | Surinam Grass plant response rating ([9]; 62 g ai/ha) | Surinam Grass plant response rating ([9]; 125 g ai/ha) | Plant response rating, Surinam Grass [9, 10] | Plant response rating, Surinam Grass [9, 11]
25: Cocklebur plant response rating ([4]; 62 g ai/ha)
70: Plant response rating (scale of 0 to 100), Pigweed ([3]; 31 g ai/ha)
60: Plant response rating (scale of 0 to 100), Pigweed ([3]; 16 g ai/ha) | Plant response rating, Kochia (kochia (Kochia scoparia); 125 g ai/ha, scale 0 to 100)
80: Pigweed plant response rating ([3]; 62 g ai/ha)
20: Plant response rating, Ragweed [7, 12]
65: Plant response rating, Pigweed [3, 12] | Plant response rating (scale of 0 to 100), Kochia (kochia (Kochia scoparia); 31 g ai/ha) | Ragweed plant response rating ([7]; 62 g ai/ha)
